Data as given in patent US20210069249A1, “METHODS AND COMPOSITIONS OF CYTOTOXIC T CELL DEPLETION” (CRISPR THERAPEUTICS AG, priority 2018, published 2021).

Legend:
[1] = test system: exon 6 of the IL2RG gene; assay: On-target cleavage efficiency (INDEL, TIDES protocol) of IL2RG gRNAs; format: cell-based; conditions: primary human CD3+ T cells; one day post-editing; 3 independent experiments
[2] = test system: off-target sites in primary human CD3+ cells; assay: GUIDE-seq off-target analysis of IL2RG gRNAs; format: cell-based; conditions: for On-Target Read Count / on-target/off-target profile (GUIDE-seq) / GUIDE-seq Off-Targets / Present in Multiple Replicates: CD3+ T cells; for on-target/off-target profile (GUIDE-seq): multiple independent cell sample replicates; for GUIDE-seq Off-Targets: number of sites; for Present in Multiple Replicates: off-target sites found in at least 2 cell sample replicates;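 as to all read-outs here: Cas9 RNP plus double-stranded oligonucleotide nucleofected into CD3+ T cells, capture sites found by sequencing, sites also seen in RNP-free control cells discarded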
[3] = test system: TCR and CD3 expression in CD8+ and CD3+ T cells; assay: TCR and CD3 expression by flow cytometry after TRAC editing; format: cell-based, human; conditions: day seven post-editing
[4] = test system: primary human CD8+ or CD3+ T cells; assay: Cell viability and total cell counts after Cas9/gRNA RNP editing; conditions: day two post-editing
[5] = test system: TRAC gene; assay: On-target cleavage efficiency (INDEL, TIDES protocol) of TRAC gRNAs; conditions: day two post-editing, 2 independent experiments

Which “Average INDEL Frequency (%)” value [1] does the source give for “GC1: sgRNA targeting IL2RG exon 6, spacer 5′-ACCAGTGCCTGGCATGTAGT-3′ (spacer only, sgRNA scaffold lacks entry, further chemistry not given here)” here?
Its value is 46.43%.

For “GC2: sgRNA targeting IL2RG exon 6, spacer 5′-CCAGTGCCTGGCATGTAGTA-3′ (spacer only, sgRNA scaffold lacks entry, further chemistry not given here)”, which “Average INDEL Frequency (%)” value [1] is on record?
The value was 74.67%.

How did the “Average INDEL Frequency (%)” value [1] turn out when “GC3: sgRNA targeting IL2RG exon 6, spacer 5′-CAGTGCCTGGCATGTAGTAG-3′ (spacer only, sgRNA scaffold lacks entry, further chemistry not given here)” was run?
The value was 77.53%.

Which “Average INDEL Frequency (%)” value [1] does the source give for “GC4: sgRNA targeting IL2RG exon 6, spacer 5′-GTAGGGGCACAACAAATATA-3′ (spacer only, sgRNA scaffold lacks entry, further chemistry not given here)” here?
Its value is 41.07%.

Which “Average INDEL Frequency (%)” value [1] does the source give for “GC5: sgRNA targeting IL2RG exon 6, spacer 5′-GAATCCTTTCCTGTTTGCAT-3′ (spacer only, sgRNA scaffold lacks entry, further chemistry not given here)” here?
The value was 13.03%.

With “GC6: sgRNA targeting IL2RG exon 6, spacer 5′-CCTGTTTGCATTGGAAGCCG-3′ (spacer only, sgRNA scaffold lacks entry, further chemistry not given here)” as the substance, how does the “Average INDEL Frequency (%)” value [1] read?
Its value is 14.80%.

Which “Average INDEL Frequency (%)” value [1] does the source give for “GC7: sgRNA targeting IL2RG exon 6, spacer 5′-GAAGCCGTGGTTATCTCTGT-3′ (spacer only, sgRNA scaffold lacks entry, further chemistry not given here)” here?
The value was 31.07%.

With “GC8: sgRNA targeting IL2RG exon 6, spacer 5′-GGTTATCTCTGTTGGCTCCA-3′ (spacer only, sgRNA scaffold lacks entry, further chemistry not given here)” as the substance, how does the “Average INDEL Frequency (%)” value [1] read?
Its value is 66.40%.

And the “On-Target Read Count” value [2]?
Its value is 4348.

And the “on-target/off-target profile (GUIDE-seq)” value [2]?
Its value is “generally favorable”.

What about the “GUIDE-seq Off-Targets” value [2] of the same substance?
The value was 930.

And the “Present in Multiple Replicates” value [2]?
Its value is 3.

And the Off-Target/On-Target ([2]; site chr1 125180094, Intergenic)?
Its Off-Target/On-Target is 1.54%.

What about the Off-Target/On-Target ([2]; site chr16 46390807, Intergenic) of the same substance?
Its Off-Target/On-Target is 0.14%.

What about the Off-Target/On-Target ([2]; site chr16 46399022, Intergenic) of the same substance?
Its Off-Target/On-Target is 0.46%.

“GC9: sgRNA targeting IL2RG exon 6, spacer 5′-GTTATCTCTGTTGGCTCCAT-3′ (spacer only, sgRNA scaffold lacks entry, further chemistry not given here)” was tested. Which “Average INDEL Frequency (%)” value [1] did it give?
The value was 31.37%.

Which results are given for “GC10: sgRNA targeting IL2RG exon 6, spacer 5′-AAGGCTGATAATCAATCCCA-3′ (spacer only, sgRNA scaffold lacks entry, further chemistry not given here)”?
Average INDEL Frequency (%) [1]: 71.77%; On-Target Read Count [2]: 5384; on-target/off-target profile (GUIDE-seq) [2]: generally favorable; GUIDE-seq Off-Targets [2]: 1227; Present in Multiple Replicates [2]: 14; Off-Target/On-Target ([2]; site chr3 108840645, Intronic, TRAT1): 3.05%; Off-Target/On-Target ([2]; site chr5 159185831, Intronic, RNF145): 0.20%; Off-Target/On-Target ([2]; site chr12 62289934, Intronic, USP15): 0.48%; Off-Target/On-Target ([2]; site chr21 17142630, Intergenic): 0.71%; Off-Target/On-Target ([2]; site chrUn_KI270438v1 104161): 1.60%; Off-Target/On-Target ([2]; site chrUn_KI270438v1 104938): 0.28%; Off-Target/On-Target ([2]; site chrUn_KI270438v1 109447): 0.39%; Off-Target/On-Target ([2]; site chrUn_KI270467v1 2297): 0.17%; Off-Target/On-Target ([2]; site chrUn_KI270467v1 2459): 0.17%; Off-Target/On-Target ([2]; site chrUn_KI270467v1 2622): 0.48%; Off-Target/On-Target ([2]; site chrUn_KI270467v1 2830): 0.13%; Off-Target/On-Target ([2]; site chrUn_KI270467v1 3365): 0.26%

For “GC11: sgRNA targeting IL2RG exon 6, spacer 5′-GGAGCCAACAGAGATAACCA-3′ (spacer only, sgRNA scaffold lacks entry, further chemistry not given here)”, which “Average INDEL Frequency (%)” value [1] is on record?
The value was 15.60%.

What does the source list for “GC12: sgRNA targeting IL2RG exon 6, spacer 5′-CCACGGCTTCCAATGCAAAC-3′ (spacer only, sgRNA scaffold lacks entry, further chemistry not given here)”?
Average INDEL Frequency (%) [1]: 58.43%; On-Target Read Count [2]: 2352; on-target/off-target profile (GUIDE-seq) [2]: generally favorable; GUIDE-seq Off-Targets [2]: 1368; Present in Multiple Replicates [2]: 4; Off-Target/On-Target ([2]; site chr13 18212170, Intronic, FAM230C): 1.02%; Off-Target/On-Target ([2]; site chrUn_KI270467v1 2459): 0.77%; Off-Target/On-Target ([2]; site chrUn_KI270467v1 2660): 0.34%; Off-Target/On-Target ([2]; site chrUn_KI270590v1 2621): 0.38%

How did the “Average INDEL Frequency (%)” value [1] turn out when “GC13: sgRNA targeting IL2RG exon 6, spacer 5′-GCTTCCAATGCAAACAGGAA-3′ (spacer only, sgRNA scaffold lacks entry, further chemistry not given here)” was run?
The value was 35.60%.

“GC14: sgRNA targeting IL2RG exon 6, spacer 5′-TAGAAAAAAGAAAAGCAAAG-3′ (spacer only, sgRNA scaffold lacks entry, further chemistry not given here)” was tested. Which “Average INDEL Frequency (%)” value [1] did it give?
The value was 28.23%.

How did the “Average INDEL Frequency (%)” value [1] turn out when “GC15: sgRNA targeting IL2RG exon 6, spacer 5′-TTGTGCCCCTACTACATGCC-3′ (spacer only, sgRNA scaffold lacks entry, further chemistry not given here)” was run?
Its value is 46.77%.

Which results are given for “TRAC 2: sgRNA targeting TRAC, spacer 5′-AGAGCAACAGTGCTGTGGCC-3′ (spacer only, sgRNA scaffold lacks entry, chemistry not fully specified)”?
CD3+ cells (%) ([3]; CD3+ T cells): 43.17%; TCR+ cells (%) ([3]; CD3+ T cells): 8.63%; CD3+ cells (%) ([3]; CD8+ T cells): 24.34%; TCR+ cells (%) ([3]; CD8+ T cells): 8.1%; Cell count ([4]; CD3+ T cells): 7.77E+05; Cell count ([4]; CD8+ T cells): 7.84E+05; INDEL Frequency (%) ([5]; CD3+ T cells): 53.85%; INDEL Frequency (%) ([5]; CD8+ T cells): 59.5%

Which results are given for “TRAC 2: sgRNA targeting TRAC, spacer 5′-AGAGCAACAGTGCTGTGGCC-3′ (spacer only; sgRNA scaffold lacks entry; TRAC gRNA spacer, TRAC 2)”?
Cell Viability (%) ([4]; CD3+ T cells): 80%; Cell Viability (%) ([4]; CD8+ T cells): 88.5%
